According to PMC13308190, “Endothelial progenitor cell susceptibility to DNA damaging and DDR-modulating compounds determines endothelial differentiation accuracy” (Stem Cell Research & Therapy, 2026):

Tests used:
[1] = test system: EC d4 (endothelial progenitor cells); assay: RT-qPCR mRNA expression; assay type: cell-based, mouse; conditions: for Flk1 mRNA / Nanog mRNA / Oct4 mRNA / Pecam1 mRNA / Tie1 mRNA / VE-cad mRNA: analysed day 6, Fig 1C; for Ccl2 mRNA / Icam-1 mRNA / Vcam-1 mRNA / iNos mRNA / eNos mRNA: Fig 8D; for Gpx4 mRNA / Slc7a11 mRNA: Fig 6F
Protocol: (§1) Total RNA was purified using the RNeasy Mini Kit (Qiagen, Hilden, Germany). Reverse transcriptase (RT) reaction was performed with the HighCapacity cDNA Reverse Transcription Kit (Applied Biosystems, Darmstadt, Germany) using 900–2000 ng of RNA. Quantitative RT-qPCR analysis was performed using following conditions: (1) 95 °C–10 min; (2) 45 amplification cycles with 95 °C–15 s, 55 °C–15 s, and 72 °C–17 s; (3) 95 °C–1 min, 55 °C–1 min, 65 °C–5 s. If not stated otherwise, analyses were performed in technical triplicates using pooled samples from two independent experiments (each performed with biological duplicates) by use of a CFX96 cycler (BioRad) and the SensiMix SYBR Kit (Bioline, London, UK). The primers used for mRNA expression analyses are listed in Supplementary Table 1. To ensure the specificity of the amplification product, melting curves were recorded at the end of the run. mRNA expression levels were normalized to β-Actin and Gapdh. Relative mRNA expression in mESC or corresponding untreated controls was set to 1.0. Only changes in gene expression of ≤ 0.5- and ≥ 2-fold were considered as biologically relevant.
To monitor prototypical functions of endothelial cells, the uptake of fluorescent 1,1-dioctadecyl-3,3,3,3-tetra-methylindocarbocyanine-labeled acetylated LDL (Dil-acLDL) was examined. Briefly, cells were incubated with Dil-acLDL (10 µg/ml, 4 h, 37 °C). After fixation (3.7% cold formaldehyde/PBS (15 min, RT) nuclei were counterstained with DAPI. The uptake of DiI-acLDL was analyzed by fluorescence microscopy (Olympus BX43, 20x objective). Additionally, the response of differentiated EC to inflammatory cytokines was measured. After treatment with a pro-inflammatory cytokine mixture (TNFα/IL-1β, 10 ng/mL) for 1 h, mRNA expression of activated EC markers E-selectin, Icam-1, Vcam-1, Ccl2, eNos, iNos was analyzed (RT-qPCR).

[2] = test system: EC d6 (endothelial-like cells); assay: RT-qPCR mRNA expression; assay type: cell-based, mouse; conditions: EC d6 + 0.05 µM 24 h + 24 h post incubation; Fig 7C
Protocol: as §1

[3] = EC d4 + 0.005 µM 48 h, analysed in EC d6
[4] = EC d4 + 0.005 µM 48 h, then + I/T (IL-1β/TNFα 10 ng/ml, 1 h)
[5] = EC d4 + 0.05 µM 48 h, analysed in EC d6
[6] = EC d4 + 0.05 µM 48 h, then + I/T (IL-1β/TNFα 10 ng/ml, 1 h)

## COc1cccc2c1C(=O)c1c(O)c3c(c(O)c1C2=O)C[C@@](O)(C(=O)CO)C[C@@H]3O[C@H]1C[C@H](N)[C@H](O)[C@H](C)O1 [Dox, doxorubicin]
[1]; EC d4 + 0.005 µM 48 h
  Flk1 mRNA: 18.23 Fold of mESC
  Nanog mRNA: 0.03 Fold of mESC
  Oct4 mRNA: 0.02 Fold of mESC
  Pecam1 mRNA: 0.78 Fold of mESC
  Tie1 mRNA: 90.91 Fold of mESC
  VE-cad mRNA: 653.73 Fold of mESC
  Gpx4 mRNA: 1.07 Fold of untreated control
  Slc7a11 mRNA: 1.71 Fold of untreated control
[1]; [3]
  Ccl2 mRNA: 2.40 Fold of untreated control
  Icam-1 mRNA: 3.06 Fold of untreated control
  Vcam-1 mRNA: 0.44 Fold of untreated control
  iNos mRNA: 4.75 Fold of untreated control
[1]; [4]
  Ccl2 mRNA: 242.22 Fold of untreated control
  Icam-1 mRNA: 14.94 Fold of untreated control
  Vcam-1 mRNA: 1.13 Fold of untreated control
  eNos mRNA: 157.09 Fold of untreated control
  iNos mRNA: 4.95 Fold of untreated control
[1]; EC d4 + 0.005 µM 48 h, Fig 2D
  Atp7a mRNA: 1.11 Fold of control
  Ctr2 mRNA: 1.25 Fold of control
  Mdr1 mRNA: 1.46 Fold of control
  Mrp1 mRNA: 1.32 Fold of control
  Oct2 mRNA: 0.33 Fold of control
[1]; EC d4 + 0.005 µM 48 h, Fig 7B
  Cdkn1a mRNA: 1.42 Fold of untreated control
  Cdkn2a mRNA: 1.12 Fold of untreated control
  Glb1 mRNA: 0.97 Fold of untreated control
  Il6 mRNA: 0.95 Fold of untreated control
  Il8 mRNA: 1.26 Fold of untreated control
  Tp53 mRNA: 0.98 Fold of untreated control
[1]; EC d4 + 0.05 µM 48 h
  Flk1 mRNA: 26.95 Fold of mESC
  Nanog mRNA: 0.02 Fold of mESC
  Oct4 mRNA: 0.02 Fold of mESC
  Pecam1 mRNA: 1.42 Fold of mESC
  Tie1 mRNA: 146.88 Fold of mESC
  VE-cad mRNA: 1297.80 Fold of mESC
  Gpx4 mRNA: 1.35 Fold of untreated control
  Slc7a11 mRNA: 3.43 Fold of untreated control
[1]; [5]
  Ccl2 mRNA: 23.54 Fold of untreated control
  Icam-1 mRNA: 53.37 Fold of untreated control
  Vcam-1 mRNA: 0.085 Fold of untreated control
  eNos mRNA: 239.30 Fold of untreated control
  iNos mRNA: 3.20 Fold of untreated control
[1]; [6]
  Ccl2 mRNA: 2314.32 Fold of untreated control
  Icam-1 mRNA: 154.74 Fold of untreated control
  Vcam-1 mRNA: 0.39 Fold of untreated control
  eNos mRNA: 234.32 Fold of untreated control
  iNos mRNA: 3.41 Fold of untreated control
[1]; EC d4 + 0.05 µM 48 h, Fig 2D
  Atp7a mRNA: 1.81 Fold of control
  Atp7b mRNA: 0.54 Fold of control
  Ctr2 mRNA: 1.38 Fold of control
  Mdr1 mRNA: 105.13 Fold of control
  Mrp1 mRNA: 1.43 Fold of control
  Oct2 mRNA: 0.53 Fold of control
[1]; EC d4 + 0.05 µM 48 h, Fig 5C
  Brca1 mRNA: 0.25 Fold of mESC
  Chk1 mRNA: 0.34 Fold of mESC
  Rad51 mRNA: 0.27 Fold of mESC
[1]; EC d4 + 0.05 µM 48 h, Fig 6D
  Pgc1a mRNA: 24.33 Fold of untreated control
[1]; EC d4 + 0.05 µM 48 h, Fig 7B
  Cdkn1a mRNA: 4.89 Fold of untreated control
  Cdkn2a mRNA: 3.09 Fold of untreated control
  Glb1 mRNA: 1.54 Fold of untreated control
  Il6 mRNA: 1.91 Fold of untreated control
  Il8 mRNA: 25.17 Fold of untreated control
[1]; EC d4 + 0.05 µM 48 h, Fig 8C
  Cldn5 mRNA: 1.35 Fold of EC d4 or d6
  Ocln mRNA: 1.78 Fold of EC d4 or d6
  Tjp1 mRNA: 2.10 Fold of EC d4 or d6
[1]; EC d4 + 0.05 µM 48 h, Fig 8F
  Ldlr mRNA: 0.45 Fold of untreated control
[2]
  Cdkn1a mRNA: 4.38 Fold of untreated control
  Cdkn2a mRNA: 1.77 Fold of untreated control
  Glb1 mRNA: 1.49 Fold of untreated control
